Several values for one entry are separate records, joined by “and”; a condition that tells them apart may be missing. Equal entries are not always repeated. Entries after “also recorded” stand apart in the source; their conditions may differ.
Key:
[1] = test system: alpha2-containing GlyRs; design: method as in Thio et al., 2003; details: embryonic mouse hippocampal neurons, low-affinity binding manner, ref Thio et al., 2003; cited from earlier work
[2] = test system: COX-2; details: cited from earlier work
[3] = test system: COX-1; details: read-out: IC50 COX-1; common NSAIDs; cited from earlier work
[4] = molecular target: T1, COX-2 (Homo sapiens, UniProt P35354); details: compounds at their IC50 concentrations, 2 h
T1 sequence (P35354 18-604): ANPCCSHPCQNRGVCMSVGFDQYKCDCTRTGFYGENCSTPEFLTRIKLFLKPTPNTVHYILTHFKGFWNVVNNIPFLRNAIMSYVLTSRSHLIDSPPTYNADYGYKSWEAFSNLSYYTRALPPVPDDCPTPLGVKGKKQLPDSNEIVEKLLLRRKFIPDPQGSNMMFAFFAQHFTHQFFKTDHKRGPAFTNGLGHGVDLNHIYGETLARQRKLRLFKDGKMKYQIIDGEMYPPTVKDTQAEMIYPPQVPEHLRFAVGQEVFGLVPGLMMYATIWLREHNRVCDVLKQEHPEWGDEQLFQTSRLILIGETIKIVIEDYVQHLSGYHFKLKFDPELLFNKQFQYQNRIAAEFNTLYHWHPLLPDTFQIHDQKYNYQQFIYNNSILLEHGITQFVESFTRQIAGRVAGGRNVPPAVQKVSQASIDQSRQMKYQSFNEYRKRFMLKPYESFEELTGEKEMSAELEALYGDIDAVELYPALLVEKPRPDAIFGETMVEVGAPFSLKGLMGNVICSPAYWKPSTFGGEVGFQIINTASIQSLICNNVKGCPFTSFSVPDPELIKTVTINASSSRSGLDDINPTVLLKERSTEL

[5] = test system: COX; assay: COX fluorescent activity assay on mouse kidney lysates; format: biochemical
Protocol: We further sought to experimentally validate the bioactivities of the COX inhibitors predicted by DTINet (Methods). First, we tested their inhibitory potencies on the mouse kidney lysates using the COX fluorescent activity assays.
(§1) Following stimulation, kidneys were harvested from mice, and macrophages from the above treatment were homogenized in 5 ml of cold phosphate-buffered saline (PBS) containing protease inhibitors and centrifuged at 10,000×g for 15 min at 4 °C. The supernatant was assayed by the COX fluorescent activity assay kit according to the manufacturer’s instructions.

[6] = test system: LPS-stimulated peritoneal macrophages; assay: RT-PCR of proinflammatory factors in LPS-stimulated peritoneal macrophages; format: cell-based, mouse; details: LPS 10 ng/ml
Protocol: Lipopolysaccharide (LPS) was used to stimulate the cultured peritoneal macrophages for the cellular inflammation model.
(§2) Peritoneal macrophages were isolated from peritoneum by lavage using 20 ml Dulbecco's modified Eagle’s medium (DMEM) and seeded into six-well plates using […] in DMEM of 10% fetal bovine serum (FBS). Non-adherent cells were removed 6 h later, whereas adherent cells were refed with DMEM of 10% FBS and allowed to recover overnight. […] Cells were harvested for subsequent analysis.
Total RNA was extracted from the whole-cell lysates using the Trnzol-A^+ reagent (Tiangen, Cat. no. DP421, China). Reverse transcription was performed using TIANScript RT Kit (Tiangen, Cat. no. KR104-02, China). All real-time PCR reactions were carried out on ABI ViiA 7 Real-Time System (Life Technologies, USA) using TransStart Top Green qPCR SuperMix (Transgen, Cat. no. AQ131-03, China). The formula 2^−ΔΔCt was used to calculate the relative expression. The expression of the housekeeping gene GAPDH was used as an internal control.

[7] = molecular target: T1, COX-2; assay: Human recombinant enzyme assay (PGE2 by ELISA): COX-2; format: biochemical; details: PGE2 levels, 10 μM arachidonic acid
Protocol: (§3) Next, the tissue extracts from the mouse kidney and the peritoneal macrophages were used for COX selective inhibition assays. […] To further evaluate the selectivity of these predicted drugs on COX-1 and COX-2, we also used the human recombinant enzyme assays to measure the levels of PGE 2 under COX-1 and COX-2 catalyzes, respectively.
(§4) Then the 10 μM arachidonic acid was added to start the reaction and allowed the process to proceed for 10 min. The reaction was terminated by diluting the reaction into buffer containing 25 μM indomethacin. The final levels of PGE 2 were measured by ELISA.

[8] = molecular target: T2, COX-2 (Mus musculus, UniProt Q05769); assay: COX selective inhibition assay on tissue extracts (COX fluorescent activity, distinguished with SC-560/Dup-697): COX-2; format: biochemical; details: mouse peritoneal macrophage lysates
T2 construct: the tissue extracts from the mouse kidney and the peritoneal macrophages; from tissue; host or cells: mouse kidney and thioglycollate-elicited peritoneal macrophages (C57BL/6J), homogenate supernatant
T2 sequence (Q05769 18-604): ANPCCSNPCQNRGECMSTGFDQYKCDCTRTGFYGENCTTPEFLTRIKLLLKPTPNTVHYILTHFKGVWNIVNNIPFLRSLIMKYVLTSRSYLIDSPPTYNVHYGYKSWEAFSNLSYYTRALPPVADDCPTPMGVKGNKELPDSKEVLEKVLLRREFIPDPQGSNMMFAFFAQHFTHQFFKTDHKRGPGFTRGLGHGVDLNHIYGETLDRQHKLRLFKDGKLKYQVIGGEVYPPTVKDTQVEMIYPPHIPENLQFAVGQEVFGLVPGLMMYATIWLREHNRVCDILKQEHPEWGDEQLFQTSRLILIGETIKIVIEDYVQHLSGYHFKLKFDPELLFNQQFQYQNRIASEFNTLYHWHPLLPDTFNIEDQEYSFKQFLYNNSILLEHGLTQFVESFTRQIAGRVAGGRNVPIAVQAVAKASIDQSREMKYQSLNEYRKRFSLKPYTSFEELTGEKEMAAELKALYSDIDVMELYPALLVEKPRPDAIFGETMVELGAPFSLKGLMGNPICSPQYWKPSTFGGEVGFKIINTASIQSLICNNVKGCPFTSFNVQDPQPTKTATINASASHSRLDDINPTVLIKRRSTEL
Protocol: as §3, §2, §1

[9] = molecular target: T3, COX-1 (Mus musculus, UniProt P22437); assay: COX selective inhibition assay on tissue extracts (COX fluorescent activity, distinguished with SC-560/Dup-697): COX-1; format: biochemical; details: mouse peritoneal macrophage lysates
T3 construct: the tissue extracts from the mouse kidney and the peritoneal macrophages; from tissue; host or cells: mouse kidney and thioglycollate-elicited peritoneal macrophages (C57BL/6J), homogenate supernatant
T3 sequence (P22437 27-602): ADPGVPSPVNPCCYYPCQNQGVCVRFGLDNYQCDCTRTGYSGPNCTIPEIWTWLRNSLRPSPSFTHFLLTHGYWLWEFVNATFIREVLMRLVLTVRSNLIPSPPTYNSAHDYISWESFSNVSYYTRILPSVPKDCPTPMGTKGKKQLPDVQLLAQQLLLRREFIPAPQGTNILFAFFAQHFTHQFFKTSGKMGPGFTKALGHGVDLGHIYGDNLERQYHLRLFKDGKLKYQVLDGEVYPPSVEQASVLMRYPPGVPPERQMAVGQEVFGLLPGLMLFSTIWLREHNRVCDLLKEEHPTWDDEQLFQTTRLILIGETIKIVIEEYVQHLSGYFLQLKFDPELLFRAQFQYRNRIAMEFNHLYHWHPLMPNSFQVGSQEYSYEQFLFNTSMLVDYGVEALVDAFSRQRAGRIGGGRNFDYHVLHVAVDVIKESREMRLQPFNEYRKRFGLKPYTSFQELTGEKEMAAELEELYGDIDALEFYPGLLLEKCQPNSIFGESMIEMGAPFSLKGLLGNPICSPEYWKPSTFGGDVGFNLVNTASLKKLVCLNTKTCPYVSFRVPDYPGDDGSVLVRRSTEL
Protocol: as §3, §2, §1

[10] = molecular target: recombinant human COX-1 (Homo sapiens, UniProt P23219); assay: Human recombinant enzyme assay (PGE2 by ELISA): COX-1; format: biochemical; details: PGE2 levels, 10 μM arachidonic acid
recombinant human COX-1, sequence (P23219 24-599): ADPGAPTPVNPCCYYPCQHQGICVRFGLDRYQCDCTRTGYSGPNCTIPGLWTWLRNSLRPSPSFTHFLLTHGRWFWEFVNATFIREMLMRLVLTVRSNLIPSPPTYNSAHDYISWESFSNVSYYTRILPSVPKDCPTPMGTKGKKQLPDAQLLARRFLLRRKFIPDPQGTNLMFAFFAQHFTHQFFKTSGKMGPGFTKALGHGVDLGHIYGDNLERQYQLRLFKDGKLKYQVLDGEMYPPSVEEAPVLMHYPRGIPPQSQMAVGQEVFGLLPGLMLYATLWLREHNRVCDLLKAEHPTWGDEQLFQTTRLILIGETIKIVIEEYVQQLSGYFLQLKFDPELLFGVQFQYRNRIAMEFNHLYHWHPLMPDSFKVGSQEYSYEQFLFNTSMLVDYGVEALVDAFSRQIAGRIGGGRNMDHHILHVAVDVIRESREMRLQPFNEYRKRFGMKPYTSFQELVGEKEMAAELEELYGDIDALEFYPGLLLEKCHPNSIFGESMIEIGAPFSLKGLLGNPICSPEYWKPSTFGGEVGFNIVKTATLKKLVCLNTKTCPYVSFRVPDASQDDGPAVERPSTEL
Protocol: as §3, §4

[11] = test system: GABA A-subtype (GABA-A) receptors; design: method as in ref 28 (Wassef et al., 2003); details: previous studies, ref 28 (Wassef et al., 2003); cited from earlier work
[12] = test system: GlyRs; design: method as in Liu et al., 2009; details: rat hippocampal neurons, ref Liu et al., 2009; cited from earlier work
[13] = test system: GABA B-subtype (GABA-B) receptors; design: method as in ref 27 (Wu et al., 2011); details: previous studies, ref 27 (Wu et al., 2011); cited from earlier work

## O=C1CN=C(c2ccccc2)c2cc([N+](=O)[O-])ccc2N1 [Nitrazepam]
[1]
  effect on alpha2-containing GlyRs: block

## CS(=O)(=O)c1ccc(C2=C(c3ccccc3)C(=O)OC2)cc1 [rofecoxib]
[2]
  IC50: 25 µM
[3]
  IC50: […]

## CNC1=Nc2ccc(Cl)cc2C(c2ccccc2)=[N+]([O-])C1 [Chlordiazepoxide]
[1]
  effect on alpha2-containing GlyRs: block

## NCCCC(O)(P(=O)(O)O)P(=O)(O)O [Alendronate]
[4]
  inhibition of the binding of [3H] celecoxib to COX-2: ~40.67%
[5]
  IC50: 160 µM
[6]
  IL-12p35 production induced by LPS (mRNA, RT-PCR): significantly inhibited
[7]
  IC50: 184 µM
[8]
  Relative COX activity inhibition (%) COX-2: 43%
[9]
  Relative COX activity inhibition (%) COX-1: 57%

## CCCc1nc2c(C)cc(-c3nc4ccccc4n3C)cc2n1Cc1ccc(-c2ccccc2C(=O)O)cc1 [Telmisartan]
[10]
  IC50: 42 µM
[4]
  inhibition of the binding of [3H] celecoxib to COX-2: about 48.33%
[5]
  IC50: 56.1 µM
[6]
  IL-12p35 production induced by LPS (mRNA, RT-PCR): significantly inhibited; also recorded: much stronger suppression effect
  LPS induced expression of IL-6 (mRNA, RT-PCR): strong inhibitory effect
  LPS induced expression of TNF-α (mRNA, RT-PCR): strong inhibitory effect
  induction of IL-1β (mRNA, RT-PCR): strongest suppression effect
[7]
  IC50: 91.8 µM
[8]
  Relative COX activity inhibition (%) COX-2: 37%
[9]
  Relative COX activity inhibition (%) COX-1: 63%

## CCCNC(=O)NS(=O)(=O)c1ccc(Cl)cc1 [Chlorpropamide]
[10]
  IC50: 224 µM
[4]
  inhibition of the binding of [3H] celecoxib to COX-2: ~14.00%
[5]
  IC50: 290 µM and ~300 µM
[7]
  IC50: 152 µM
[8]
  Relative COX activity inhibition (%) COX-2: 63%
[9]
  Relative COX activity inhibition (%) COX-1: 37%

## CN1CCN(C2=Nc3cc(Cl)ccc3Nc3ccccc32)CC1 [Clozapine]
[11]
  effect on GABA-A receptors in the cortex: antagonize
[12]
  effect on GlyRs: non-competitive antagonist
[13]
  interaction with GABA-B receptors: direct interaction

Source: PMC5603535, “A network integration approach for drug-target interaction prediction and computational drug repositioning from heterogeneous information” (Nature Communications, 2017)
